Laboratory results: patent US9409876B2, “Bradykinin receptor antagonists and pharmaceutical compositions containing them” (DOMPE' FARMACEUTICI S.P.A., priority 2013, dated 2016)

Each compound was assayed against T1, BKB1 receptors (Homo sapiens, UniProt P46663) (assay: Calcium Mobilization Assay (FLIPR), IMR-90 cells, BKB1). Conditions: IL-1 induced IMR-90 cells, agonist desArg10-kallidin (DAKD).
T1 construct: Human (IMR-90) lung fibroblast cells expressing native BKB1 receptors; endogenous in cells; host or cells: IMR-90 human lung fibroblasts, treated with human IL-1 to up-regulate BKB1
T1 sequence (P46663 1-353): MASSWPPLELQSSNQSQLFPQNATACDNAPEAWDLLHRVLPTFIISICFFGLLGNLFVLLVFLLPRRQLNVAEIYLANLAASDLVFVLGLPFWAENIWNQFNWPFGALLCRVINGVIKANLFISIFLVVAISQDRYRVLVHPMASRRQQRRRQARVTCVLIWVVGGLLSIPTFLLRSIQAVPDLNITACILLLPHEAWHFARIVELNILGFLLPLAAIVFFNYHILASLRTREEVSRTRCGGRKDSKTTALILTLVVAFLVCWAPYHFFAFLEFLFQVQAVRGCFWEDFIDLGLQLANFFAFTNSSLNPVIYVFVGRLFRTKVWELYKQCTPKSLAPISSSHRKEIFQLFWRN
Assay type: cell-based
Protocol: Calcium Mobilization Assay (FLIPR)—Human (IMR-90) lung fibroblast cells expressing native BKB1 receptors were harvested by trypsinization and seeded into black wall/clear bottom 96-well plates (Costar 3904; Corning Life Sciences, Acton, Mass.) at approximately 13,000 cells/well. After 1 day incubation, cells were treated with human IL-1 (0.35 ng/ml) in 10% FBS/MEM for 2 h to up-regulate BKB1 receptors. Induced cells were loaded with fluorescent calcium indicator by incubation with 2.3 µM Fluo-4/acetoxymethyl ester (Invitrogen) at 37° C. for 1.5 h in the presence of an anion transport inhibitor (2.5 mM probenecid in 1% FBS/MEM). Extracellular dye was removed by washing with assay buffer (2.5 mM probenecid, 0.1% BSA in 20 mM HEPES/HBSS without bicarbonate or phenol red, pH 7.5) and cell plates were kept in the dark until used. Test compounds were assayed at eight concentrations in triplicate.

| SMILES | IC50 [nM] |
| --- | --- |
| COc1ccccc1CN(C(=O)CC(C)C)C(C(=O)NCC1CCCO1)c1ccc(C)cc1 (stereo not drawn) [8 (mix)] | 418 |
| COc1ccccc1CN(C(=O)Cc1c[nH]cn1)C(C(=O)NCC1CCCO1)c1ccc(C)cc1 (stereo not drawn) [12 (mix), 2-(1H-imidazol-4-yl)-N-(2-methoxybenzyl)-N-{1-(4-methylphenyl)-2-oxo-2-[(tetrahydrofuran-2-ylmethyl)amino]ethyl}acetamide] | 98 |
| CCCCC(=O)N(Cc1ccccc1OC)C(C(=O)NCC1CCCO1)c1ccc(C)cc1 (stereo not drawn) [14 (mix), N-(2-methoxybenzyl)-N-{1-(4-methylphenyl)-2-oxo-2-[(tetrahydrofuran-2-ylmethyl)amino]ethyl}pentanamide] | 300 |
| COc1ccccc1CN(C(=O)C1CCCC1)C(C(=O)NCC1CCCO1)c1ccc(C)cc1 (stereo not drawn) [15 (mix), N-(2-methoxybenzyl)-N-{1-(4-methylphenyl)-2-oxo-2-[(tetrahydrofuran-2-ylmethyl)amino]ethyl}cyclopentanecarboxamide] | 300 |
| COc1ccccc1CN(C(=O)c1ccc(O)cc1)C(C(=O)NCC1CCCO1)c1ccc(C)cc1 (stereo not drawn) [16 (mix), 4-hydroxy-N-(2-methoxybenzyl)-N-{1-(4-methylphenyl)-2-oxo-2-[(tetrahydrofuran-2-ylmethyl)amino]ethyl}benzamide] | 1000 |
| COc1ccccc1CN(C(=O)CCC(C)=O)C(C(=O)NCC1CCCO1)c1ccc(C)cc1 (stereo not drawn) [17 (mix), 4-oxo-N-(2-methoxybenzyl)-N-{1-(4-methylphenyl)-2-oxo-2-[(tetrahydrofuran-2-ylmethyl)amino]ethyl}pentanamide] | 1200 |
| COc1ccccc1CN(C(=O)C1CCC(F)(F)CC1)C(C(=O)NCC1CCCO1)c1ccc(C)cc1 (stereo not drawn) [23 (mix), 4,4-difluoro-N-(2-methoxybenzyl)-N-{1-(4-methylphenyl)-2-oxo-2-[(tetrahydrofuran-2-ylmethyl)amino]ethyl}cyclohexanecarboxamide] | 8400 |
| COc1ccccc1CN(C(=O)C1CCC1)C(C(=O)NCC1CCCO1)c1ccc(C)cc1 (stereo not drawn) [25 (mix), N-(2-methoxybenzyl)-N-{1-(4-methylphenyl)-2-oxo-2-[(tetrahydrofuran-2-ylmethyl)amino]ethyl}cyclobutanecarboxamide] | 15700 |
| COc1ccccc1CN(C(=O)C1CC1)C(C(=O)NCC1CCCO1)c1ccc(C)cc1 (stereo not drawn) [27 (mix), N-(2-methoxybenzyl)-N-{1-(4-methylphenyl)-2-oxo-2-[(tetrahydrofuran-2-ylmethyl)amino]ethyl}cyclopropanecarboxamide] | 15000 |
| COc1ccccc1CN(C(=O)c1ccc([N+](=O)[O-])cc1)C(C(=O)NCC1CCCO1)c1ccc(C)cc1 (stereo not drawn) [28 (mix), N-(2-methoxybenzyl)-4-nitro-N-{1-(4-methylphenyl)-2-oxo-2-[(tetrahydrofuran-2-ylmethyl)amino]ethyl}benzamide] | 3000 |
| COc1ccccc1CN(C(=O)Cc1ccc(N(C)C)cc1)C(C(=O)NCC1CCCO1)c1ccc(C)cc1 (stereo not drawn) [29 (mix), 2-[(4-dimethylamino)phenyl]-N-(2-methoxybenzyl)-N-{1-(4-methylphenyl)-2-oxo-2-[(tetrahydrofuran-2-ylmethyl)amino]ethyl}acetamide] | 2100 |
| Cc1ccc(C(C(=O)NCC2CCCO2)N(CC2CCCC2)C(=O)Cc2c[nH]cn2)cc1 (stereo not drawn) [32 (mix), N-(cyclopentylmethyl)-2-(1H-imidazol-4-yl)-N-{1-(4-methylphenyl)-2-oxo-2-[(tetrahydrofuran-2-ylmethyl)amino]ethyl}acetamide] | 800 |
| Cc1ccc(C(C(=O)NCC2CCCO2)N(CC2CCCCC2)C(=O)Cc2ccccc2C)cc1 (stereo not drawn) [33 (mix), N-(cyclohexylmethyl)-2-(2-methylphenyl)-N-{1-(4-methylphenyl)-2-oxo-2-[(tetrahydrofuran-2-ylmethyl)amino]ethyl}acetamide] | 1700 |
| Cc1ccc(C(C(=O)NCC2CCCO2)N(CC2CCCCC2)C(=O)CN(C)C)cc1 (stereo not drawn) [34 (mix), N-(cyclohexylmethyl)-2-(dimethylamino)-N-{1-(4-methylphenyl)-2-oxo-2-[(tetrahydrofuran-2-ylmethyl)amino]ethyl}acetamide] | 1100 |

Other lines, results leading:

| IC50 [nM] | SMILES |
| --- | --- |
| 1900 | COc1ccccc1CN(C(=O)Cn1nnc2ccccc21)C(C(=O)NCC1CCCO1)c1ccc(C)cc1 (stereo not drawn) [1 (mix), 2-(1H-benzotriazol-1-yl)-N-(2-methoxybenzyl)-N-{1-(4-methylphenyl)-2-oxo-2-[(tetrahydrofuran-2-ylmethyl)amino]ethyl}acetamide] |
| 300 | COc1ccccc1CN(C(=O)Cc1ccccc1C)C(C(=O)NCC1CCCO1)c1ccc(C)cc1 (stereo not drawn) [9 (mix)] |
| 300 | COc1ccccc1CN(C(=O)CN1C(=O)c2ccccc2C1=O)C(C(=O)NCC1CCCO1)c1ccc(C)cc1 (stereo not drawn) [10 (mix), 2-(1,3-dioxoisoindolin-2-yl)-N-(2-methoxybenzyl)-N-{1-(4-methylphenyl)-2-oxo-2-[(tetrahydrofuran-2-ylmethyl)amino]-ethyl}acetamide] |
| 300 | COc1ccccc1CC(=O)N(Cc1ccccc1OC)C(C(=O)NCC1CCCO1)c1ccc(C)cc1 (stereo not drawn) [13 (mix)] |
| 300 | COc1ccccc1CN(C(=O)Cc1cccc(C)c1)C(C(=O)NCC1CCCO1)c1ccc(C)cc1 (stereo not drawn) [18 (mix)] |
| 1400 | COc1ccccc1CN(C(=O)Cc1ccc(C)cc1)C(C(=O)NCC1CCCO1)c1ccc(C)cc1 (stereo not drawn) [19 (mix)] |
| 6100 | COc1ccccc1CN(C(=O)c1ccc(C)cc1)C(C(=O)NCC1CCCO1)c1ccc(C)cc1 (stereo not drawn) [20 (mix), 4-methyl-N-(2-methoxybenzyl)-N-{1-(4-methylphenyl)-2-oxo-2-[(tetrahydrofuran-2-ylmethyl)amino]ethyl}benzamide] |
| 3500 | COc1ccccc1CN(C(=O)Cc1ccc(F)cc1)C(C(=O)NCC1CCCO1)c1ccc(C)cc1 (stereo not drawn) [21 (mix)] |
| 8700 | COc1ccccc1CN(C(=O)c1ccc(F)cc1)C(C(=O)NCC1CCCO1)c1ccc(C)cc1 (stereo not drawn) [22 (mix), 4-fluoro-N-(2-methoxybenzyl)-N-{1-(4-methylphenyl)-2-oxo-2-[(tetrahydrofuran-2-ylmethyl)amino]ethyl}benzamide] |
| 13200 | CCC(=O)N(Cc1ccccc1OC)C(C(=O)NCC1CCCO1)c1ccc(C)cc1 (stereo not drawn) [24 (mix), N-(2-methoxybenzyl)-N-{1-(4-methylphenyl)-2-oxo-2-[(tetrahydrofuran-2-ylmethyl)amino]ethyl}propanamide] |
| 14400 | COc1ccccc1CN(C(=O)c1ccccc1[N+](=O)[O-])C(C(=O)NCC1CCCO1)c1ccc(C)cc1 (stereo not drawn) [26 (mix), N-(2-methoxybenzyl)-2-nitro-N-{1-(4-methylphenyl)-2-oxo-2-[(tetrahydrofuran-2-ylmethyl)amino]ethyl}benzamide] |
| 68 | COc1ccccc1CN(C(=O)Cn1ccnn1)C(C(=O)NCC1CCCO1)c1ccc(C)cc1 (stereo not drawn) [30 (mix), N-(2-methoxybenzyl)-N-{1-(4-methylphenyl)-2-oxo-2-[(tetrahydrofuran-2-ylmethyl)amino]ethyl}-2-(1H-1,2,3-triazol-1-yl)acetamide] |
| 268 | COc1ccccc1CN(C(=O)Cn1ccc2ccccc21)C(C(=O)NCC1CCCO1)c1ccc(C)cc1 (stereo not drawn) [31 (mix), 2-(1H-indol-1-yl)-N-(2-methoxybenzyl)-N-{1-(4-methylphenyl)-2-oxo-2-[(tetrahydrofuran-2-ylmethyl)amino]ethyl}acetamide] |
